From patent US20260215428A1, “WEED CONTROL METHOD” (SYNGENTA CROP PROTECTION AG, priority 2023, published 2026)

Experiments:
Assay type in all cases: in vivo
Eleusine indica = assay: Glasshouse post-emergence test, visual damage, Tables B1-2 and B1-3; conditions: 14 days after application
Experimental: Seeds of a variety of test species are sown in standard soil in pots. For each treatment, three replicate pots containing 10-15 plants per one-inch pot were sprayed at the 2-3 leaf stage. […] The test plants are then grown in a glasshouse under controlled conditions in a glasshouse (at 24/16° C., day/night; 14 hours light; 65% humidity) and watered twice daily. Plants were assessed for visual damage compared to the untreated control 14 days after application (0=0% damage; 100=100% damage).

Digitaria sanguinalis = assay: Glasshouse post-emergence test, visual damage, Table B1-4; conditions: 14 days after application
Experimental: Seeds of a variety of test species are sown in standard soil in pots. For each treatment, three replicate pots containing 10-15 plants per one-inch pot were sprayed at the 2-3 leaf stage. Clethodim and Compound (Ic) were each applied at 15, 30, 60 and 120 g ai/ha. The test plants are then grown in a glasshouse under controlled conditions in a glasshouse (at 24/16° C., day/night; 14 hours light; 65% humidity) and watered twice daily. Plants were assessed for visual damage compared to the untreated control 14 days after application (0=0% damage; 100=100% damage).

Volunteer corn = assay: 26 field trials, control of volunteer corn, Table B1-6; conditions: 100 g/ha
Sorghum halepense = assay: Further glasshouse test versus other ACCase-inhibiting herbicides, Table B2-4; conditions: 21 days after application
From the text: (§1) Further tests were employed to test the efficacy of a compound of Formula I versus other ACCase-inhibiting herbicides. The five main targets were Lolium multiflorum, Eleusine indica, Digitaria insularis, Sorghum halepense and Echinochloa crus-galli. Collectively, the populations contained all the major target-site resistance mutations affecting ACCase herbicides. Two L. multiflorum (LM-NTSR-1 and LM-NTSR-2) and one E. crus-galli (ECG-NTSR-1) populations were characterised exclusively by non-target-site resistance (“NTSR”). The target-site resistant L. multiflorum and E. indication populations were 100% homozygous for different ACCase mutations whilst the D. insularis, S. halepense and E. crus-galli samples contained a mixture of homozygous wild and mutant individuals at different genotypic frequencies. Additional underlying NTSR cannot be ruled out in the populations characterised by target-site resistance.
(§2) Around 50 seeds of each of the 24 weed populations were sown in 12-cm pots containing a mixture of peat and compost in a 1:1 ratio. The pots were watered, fertilised and kept in controlled glasshouse conditions set at 24° C./16 hr day, 18° C. night, 65% relative humidity, and a photon flux density of approximately 250 μmol quanta m^−2 s^−1 for Lolium multiflorum. The E. indica, D. insularis, S. halepense and E. crus-galli plants were kept in a separate glasshouse bay characterised by a 17 H photoperiod of 180 μmol m^−2 s^−1 with temperatures of 25° C. day and 19° C. night and 65% relative humidity. When the plants were at the two to four-leaf stage, they were treated with the various ACCase-inhibiting herbicides at 0, 15, 30, 60, 120 and 240 g ai ha^−1 in a spray cabinet mounted with a single mobile Teejet flat fan nozzle (11002VS) calibrated to deliver 200 L ha^−1 at 200 kPa. The L. multiflorum populations were treated by a compound of Formula Ic, clodinafop-propargyl, pinoxaden, cycloxydim and clethodim and the warm season grass weeds E. indica, D. insularis, S. halepense and E. crus-galli were sprayed with a Compound Ic and the commonly employed haloxyfop-methyl and clethodim. Three replicate pots were used per population. Plants were assessed for visual damage compared to the untreated control 21 days after application (0=0% damage; 100=100% damage).

Echinochloa Crus-galli = assay: Further glasshouse test versus other ACCase-inhibiting herbicides, Table B2-5; conditions: 21 days after application
From the text: as §1, §2

In the case of `CCSC(C)CC1CC(=O)C(/C(CC)=N/OC/C=C/Cl)=C(O)C1` (centres unmarked) [Clethodim, clethodim], the visual damage (Eleusine indica; Table B1-2, biotype 87% I1781L (heterozygous), 15 g/ha) is reported as 80%, the visual damage (Eleusine indica; Table B1-2, biotype 87% I1781L (heterozygous), 30 g/ha) is reported as 77% and the visual damage (Eleusine indica; Table B1-2, biotype 87% I1781L (heterozygous), 60 g/ha) is reported as 100%. For the same molecule, the visual damage (Eleusine indica; Table B1-2, biotype 87% I1781L (heterozygous), 120 g/ha) was 100%, the visual damage (Eleusine indica; Table B1-2, biotype D2078G + W2027C (heterozygous), first entry, 15 g/ha) was 50% and the visual damage (Eleusine indica; Table B1-2, biotype D2078G + W2027C (heterozygous), first entry, 30 g/ha) was 60%. For the same molecule, the visual damage (Eleusine indica; Table B1-2, biotype D2078G + W2027C (heterozygous), first entry, 60 g/ha) was 70%, the visual damage (Eleusine indica; Table B1-2, biotype D2078G + W2027C (heterozygous), first entry, 120 g/ha) was 80% and the visual damage (Eleusine indica; Table B1-2, biotype D2078G + W2027C (heterozygous), second entry, 15 g/ha) was 63%. It also gave a visual damage (Eleusine indica; Table B1-2, biotype D2078G + W2027C (heterozygous), second entry, 30 g/ha) of 67%, a visual damage (Eleusine indica; Table B1-2, biotype D2078G + W2027C (heterozygous), second entry, 60 g/ha) of 93% and a visual damage (Eleusine indica; Table B1-2, biotype D2078G + W2027C (heterozygous), second entry, 120 g/ha) of 100%. The visual damage (Eleusine indica; Table B1-2, biotype I2041N (heterozygous), 15 g/ha) was 82%, the visual damage (Eleusine indica; Table B1-2, biotype I2041N (heterozygous), 30 g/ha) was 100% and the visual damage (Eleusine indica; Table B1-2, biotype I2041N (heterozygous), 60 g/ha) was 100%. For the same molecule, the visual damage (Eleusine indica; Table B1-2, biotype I2041N (heterozygous), 120 g/ha) was 100%, the visual damage (Eleusine indica; Table B1-2, biotype NTSR (non-target site resistance), 1 g/ha) was 0% and the visual damage (Eleusine indica; Table B1-2, biotype NTSR (non-target site resistance), 2 g/ha) was 33%. It also gave a visual damage (Eleusine indica; Table B1-2, biotype NTSR (non-target site resistance), 4 g/ha) of 43%, a visual damage (Eleusine indica; Table B1-2, biotype NTSR (non-target site resistance), 8 g/ha) of 77% and a visual damage (Eleusine indica; Table B1-2, biotype Sensitive, 15 g/ha) of 87%. It also gave a visual damage (Eleusine indica; Table B1-2, biotype Sensitive, 30 g/ha) of 100%, a visual damage (Eleusine indica; Table B1-2, biotype Sensitive, 60 g/ha) of 100% and a visual damage (Eleusine indica; Table B1-2, biotype Sensitive, 120 g/ha) of 100%. For the same molecule, the visual damage (Eleusine indica; Table B1-3, Pop1 (mix of sensitive, D2078G and G2096A biotypes), 15 g/ha) was 10%, the visual damage (Eleusine indica; Table B1-3, Pop1 (mix of sensitive, D2078G and G2096A biotypes), 30 g/ha) was 33% and the visual damage (Eleusine indica; Table B1-3, Pop1 (mix of sensitive, D2078G and G2096A biotypes), 60 g/ha) was 47%. The visual damage (Eleusine indica; Table B1-3, Pop1 (mix of sensitive, D2078G and G2096A biotypes), 120 g/ha) was 63%, the visual damage (Eleusine indica; Table B1-3, Pop2 (mix of sensitive, D2078G and G2096A biotypes), 15 g/ha) was 10% and the visual damage (Eleusine indica; Table B1-3, Pop2 (mix of sensitive, D2078G and G2096A biotypes), 30 g/ha) was 33%. For the same molecule, the visual damage (Eleusine indica; Table B1-3, Pop2 (mix of sensitive, D2078G and G2096A biotypes), 60 g/ha) was 76%, the visual damage (Eleusine indica; Table B1-3, Pop2 (mix of sensitive, D2078G and G2096A biotypes), 120 g/ha) was 77% and the visual damage (Eleusine indica; Table B1-3, biotype Sensitive, 15 g/ha) was 100%. It also gave a visual damage (Eleusine indica; Table B1-3, biotype Sensitive, 30 g/ha) of 100%, a visual damage (Eleusine indica; Table B1-3, biotype Sensitive, 60 g/ha) of 100% and a visual damage (Eleusine indica; Table B1-3, biotype Sensitive, 120 g/ha) of 100%. For the same molecule, the visual damage (Digitaria sanguinalis; biotype I1781L (heterozygous), 15 g/ha) was 20%, the visual damage (Digitaria sanguinalis; biotype I1781L (heterozygous), 30 g/ha) was 20% and the visual damage (Digitaria sanguinalis; biotype I1781L (heterozygous), 60 g/ha) was 53%. It also gave a visual damage (Digitaria sanguinalis; biotype I1781L (heterozygous), 120 g/ha) of 67%, a visual damage (Digitaria sanguinalis; biotype Sensitive, 15 g/ha) of 87% and a visual damage (Digitaria sanguinalis; biotype Sensitive, 30 g/ha) of 90%. For the same molecule, the visual damage (Digitaria sanguinalis; biotype Sensitive, 60 g/ha) was 100%, the visual damage (Digitaria sanguinalis; biotype Sensitive, 120 g/ha) was 100% and the Control (14d) (Volunteer corn; 14d) was 90%. For the same molecule, the Control (28d) (Volunteer corn; 28d) was 96%, the visual damage (Sorghum halepense; biotype Sensitive, 15 g/ha) was 83% and the visual damage (Sorghum halepense; biotype Sensitive, 30 g/ha) was 98%. It also gave a visual damage (Sorghum halepense; biotype Sensitive, 60 g/ha) of 100%, a visual damage (Sorghum halepense; biotype Sensitive, 120 g/ha) of 93% and a visual damage (Sorghum halepense; biotype Sensitive, 240 g/ha) of 98%. It also gave a visual damage (Sorghum halepense; biotype W2027C, 15 g/ha) of 50%, a visual damage (Sorghum halepense; biotype W2027C, 30 g/ha) of 92% and a visual damage (Sorghum halepense; biotype W2027C, 60 g/ha) of 100%. It also gave a visual damage (Sorghum halepense; biotype W2027C, 120 g/ha) of 100%, a visual damage (Sorghum halepense; biotype W2027C, 240 g/ha) of 100% and a visual damage (Echinochloa Crus-galli; biotype Sensitive, 15 g/ha) of 100%. For the same molecule, the visual damage (Echinochloa Crus-galli; biotype Sensitive, 30 g/ha) was 100%, the visual damage (Echinochloa Crus-galli; biotype Sensitive, 60 g/ha) was 100% and the visual damage (Echinochloa Crus-galli; biotype Sensitive, 120 g/ha) was 100%. The visual damage (Echinochloa Crus-galli; biotype Sensitive, 240 g/ha) was 100%, the visual damage (Echinochloa Crus-galli; biotype W2027C, 15 g/ha) was 83% and the visual damage (Echinochloa Crus-galli; biotype W2027C, 30 g/ha) was 100%. The visual damage (Echinochloa Crus-galli; biotype W2027C, 60 g/ha) was 100%, the visual damage (Echinochloa Crus-galli; biotype W2027C, 120 g/ha) was 100% and the visual damage (Echinochloa Crus-galli; biotype W2027C, 240 g/ha) was 100%. For the same molecule, the visual damage (Echinochloa Crus-galli; population ECG-NTSR-1 (non-target-site resistance), 15 g/ha) was 95%, the visual damage (Echinochloa Crus-galli; population ECG-NTSR-1 (non-target-site resistance), 30 g/ha) was 98% and the visual damage (Echinochloa Crus-galli; population ECG-NTSR-1 (non-target-site resistance), 60 g/ha) was 100%. The visual damage (Echinochloa Crus-galli; population ECG-NTSR-1 (non-target-site resistance), 120 g/ha) was 100% and the visual damage (Echinochloa Crus-galli; population ECG-NTSR-1 (non-target-site resistance), 240 g/ha) was 100%.
